Experimental data from patent US5780590A, “Antithrombotic azacycloalkylalkanoyl peptides and pseudopeptides” (Rhone-Poulenc Rorer Pharmaceuticals Inc., priority 1996, dated 1998).

What was measured:
[1] = system: ADP-induced platelet aggregation in platelet rich plasma; test: Inhibition of ADP-Induced ex-vivo Platelet Aggregation; assay type: in vivo, mongrel dogs; conditions: dog, dose 5 mg/kg oral
Source text: The Platelet Aggregation Assay is based on that described in Blood 66 (4), 946-952 (1985). The Fibrinogen-Binding Assay is essentially that of Ruggeri, Z. M., et al., Proc. Natl. Acad. Sci. USA 83, 5708-5712 (1986) and Plow, E. F., et al., Proc. Natl. Acad. Sci., USA 82, 8057-8061 (1985). The Inhibition of ADP-Induced ex-vivo Platelet Aggregation assay is based on that of Zucker, "Platelet Aggregation Measured by the Photoelectric Method", Methods in Enzymology 169, 117-133 (1989).
Inhibition of ADP-Induced ex-vivo Platelet Aggregation
Control blood samples are obtained 5-10 minutes prior to administration of a test compound in mongrel dogs weighing from 10 to 20 Kg. The compound is administered intragasticly, via aqueous gavage, or orally, via gelatin capsule. […]
The blood samples are centrifuged at 1000 rpm for 10 minutes to obtain platelet rich plasma (PRP). […] Platelet count in the PRP is determined by using a Coulter Counter (Coulter Electronics, Hialeah, Fla.). […] Platelet aggregation is monitored spectrophotometrically utilizing a light transmission aggregometer (Bio/Data Platelet Aggregation Profiler, Model PAP-4, Bio/Data Corp., Horsham, Pa.). For the testing of a compound, the rate of change (slope) of light transmittance and the maximum light transmittance (maximum aggregation) is recorded in duplicate. […]

[2] = Isothermal microcalorimetry of solid state form conversion; assay type: physicochemical; conditions: 60° C. (FIG. 8)
Procedure: Isothermal microcalorimetry experiments on hygroscopic and non-hygroscopic crystalline forms of N-[N-[N-(4-piperdin-4-yl)butanoyl)-N-ethylglycyl]-(L)-aspartyl]-(L)-β-cyclohexylalanine amide are performed on a Thermometric® Thermal Activity Monitor (TAM). Solid state conversions of the different crystalline forms are studied by exposing the forms to different humidities or solvent vapors at different temperatures. The saturated salt solutions used to obtain different humidities were: KCl (80% RH), NaCl (75% RH), and NaBr (65% RH). Approximately 100 mg quantities of the forms are weighed into a TAM glass ampule and a microhygrostate containing a saturated salt solution (with excess solid) or an organic solvent is placed inside the ampule. The ampule is sealed, equilibrated to the temperature of the experiment, and lowered into the measuring position in the TAM. An identical system containing washed sea sand, in place of the form subject to testing, is placed on the reference side. Output power ([…]) is measured as a function of time (FIGS. 6-8).

[3] = Moisture sorption isotherms; assay type: physicochemical; conditions: 25° C. (FIG. 9)
Procedure: Moisture Sorption Isotherms of hygroscopic and non-hygroscopic crystalline forms of N-[N-[N-(4-piperdin-4-yl)butanoyl)-N-ethylglycyl]-(L)-aspartyl]-(L)-β-cyclohexylalanine amide are obtained on a VTI MB300G moisture balance. The experiments are conducted either by subjecting approximately 15 mg of the subject crystalline form to increasing and decreasing steps of % RH and following the weight gain (at each equilibrium step) as a function of % RH (FIG. 9) or by holding the subject crystalline form at constant humidity and following the weight gain as a function of time.

conversion to non-hygroscopic form at 100% RH [2] | SMILES | % Inhibition of ex-vivo Platelet Aggregation After Oral Administration, 24 h [1] [%] | % weight gain vs. % RH [3]
 | CCN(CC(=O)N[C@@H](CC(=O)O)C(=O)N[C@@H](CC1CCCCC1)C(N)=O)C(=O)CCCC1CCNCC1 [Example 15] | 5 | 
without the liquification | CCN(CC(=O)N[C@@H](CC(=O)O)C(=O)N[C@@H](CC1CCCCC1)C(N)=O)C(=O)CCCC1CCNCC1 [hygroscopic form] |  | picks up more water than the non-hygroscopic form as the RH increases
